Tested on: rat spinal cord injury model
Experiment: Thermal algesimetry test in rat spinal cord injury model
Type: in vivo
Details: for Thermal algesimetry test, Time after spying infrared thermal stimulation: right sole
Description: Six-week-old female Wistar rats were used. The rats were purchased from Charles River Laboratories Japan, Inc. (Yokohama, Japan). Anesthesia was performed as follows. A 1:10 dilution of a mixture of three anesthetic agents in physiological saline was administered by intraperitoneal injection. One dose consisted of 0.2 mg/kg of midazolam, 0.015 mg/kg of medetomidine, and 0.25 mg/kg of butorphanol. The rat was placed in a prone position on an operating table, and a dorsal midline incision was made. The T10 vertebral arch was removed to expose the posterior face of the spinal cord, and the left spinal cord was hemisected using a sharp-pointed surgical scalpel (spitz mess). The skin was sutured using a 4-0 nylon thread and the surgery was completed. A comparison was made among three groups: a methylcobalamin treatment group, an untreated group, and a sham group. Immediately after the surgical operation, an osmotic minipump filled with methylcobalamin (1 mg/kg/day) or physiological saline was placed for the methylcobalamin treatment group and the untreated group, respectively, and left in the left dorsal subcutaneous space. The sham group underwent only resection of the Th10 vertebral arch.
Each rat was separately accommodated in a dedicated cage, an infrared thermal stimulation was applied to the right sole, and time until the rat retracted the hind limb was measured. To avoid damage to the skin, the stimulation was continued for 15 seconds at the maximum. The evaluations were performed before surgery, and at 7, 14, 21, and 28 days after the surgery.

SMILES: C/C1=C2/[N-][C@H]([C@H](CC(N)=O)[C@@]2(C)CCC(=O)NC[C@@H](C)OP(=O)([O-])O[C@H]2[C@@H](O)[C@@H](n3cnc4cc(C)c(C)cc43)O[C@@H]2CO)[C@]2(C)N=C(/C(C)=C3N=C(/C=C4N=C1[C@@H](CCC(N)=O)C\4(C)C)[C@@H](CCC(N)=O)[C@]\3(C)CC(N)=O)[C@@H](CCC(N)=O)[C@]2(C)CC(N)=O.[CH3-].[Co+3] [MeCbl, methylcobalamin]
- Thermal algesimetry test, Time after spying infrared thermal stimulation (0 days after surgery (before surgery)): 9.99 s
- right-lower-extremity hyperesthesia (thermal algesimetry test) (21 and 28 days after the surgery, 1 mg/kg/day osmotic minipump): significantly improved
- Thermal algesimetry test, Time after spying infrared thermal stimulation (7 days after surgery): 8.59 s
- Thermal algesimetry test, Time after spying infrared thermal stimulation (14 days after surgery): 8.86 s
- Thermal algesimetry test, Time after spying infrared thermal stimulation (21 days after surgery): 9.61 s
- Thermal algesimetry test, Time after spying infrared thermal stimulation (28 days after surgery): 9.92 s
